By IC50 is commonly meant the point on the concentration scale where inhibition reaches its midpoint.

This assay deals with H23 cells. Description: H23 Cellular Proliferation Assay (CellTiter-Glo). Format: cell-based. The following applies: Homo sapiens, NCI-H23, 96 h, 4 days, read-out: H23 CTG IC50. As for the experimental part:
H23 Cellular Proliferation Assay
Cells were treated with compounds diluted in DMSO and a 9 point 5-fold serial dilutions. Plates were placed in 37° C., 5% CO2 for to incubate for 4 days. Before they were developed by adding 100 μL of CellTiter-Glo reagent (Promega) to the assay plate, plates were shaken briefly for 2 mins and allowed to incubate at rt for 10 mins. The plates are read with a M5e plate reader according to CellTiter-Glo protocol. The GraphPad Prism software is used to get IC50 values.
Background: In ATP-based viability assays light output follows the ATP content of the culture.

Turning to `C=CCn1c(=O)c2cnc(Nc3ccc(N4CCN(C)CC4)cc3)nc2n1-c1ccc2c(c1)[C@](O)(CC)CO2` (single isomer, unassigned) [Example 5A], the IC50 was above 1000 nM.
For `C=CCn1c(=O)c2cnc(Nc3ccc(N4CCN(C)CC4)cc3)nc2n1-c1ccc2c(c1)[C@@](O)(CC)CO2` (single isomer, unassigned) [Example 5B] the value was 100 to 1000 nM; for `C=CCn1c(=O)c2cnc(Nc3ccc(N4CCN(C)CC4)cc3)nc2n1-c1ccc2c(n1)[C@](O)(C(F)(F)F)CO2` (single isomer, unassigned) [Example 6A], above 1000 nM; for `C=CCn1c(=O)c2cnc(Nc3ccc(N4CCN(C)CC4)cc3)nc2n1-c1ccc2c(n1)[C@@](O)(C(F)(F)F)CO2` (single isomer, unassigned) [Example 6B], 100 to 1000 nM.
`C=CCn1c(=O)c2cnc(Nc3ccc(N4CCNCC4)c(C)c3)nc2n1-c1ccc2c(n1)[C@](O)(CC)CC2` (single isomer, unassigned) [Example 13A]: the IC50 fell in the range of 100 to 1000 nM.
On to `C=CCn1c(=O)c2cnc(Nc3ccc(N4CCNCC4)c(C)c3)nc2n1-c1ccc2c(n1)[C@@](O)(CC)CC2` (single isomer, unassigned) [Example 13B], for which the IC50 is below 100 nM.
Turning to `C=CCn1c(=O)c2cnc(Nc3ccc(N4CCN(C)CC4)cc3)nc2n1-c1ccc2c(n1)[C@](O)(C1CC1)CC2` (single isomer, unassigned) [Example 16A], the IC50 fell in the range of 100 to 1000 nM.
Take `C=CCn1c(=O)c2cnc(Nc3ccc(N4CCN(C)[C@@H](C)C4)cc3)nc2n1-c1ccc2c(n1)[C@@](C)(O)CC2` (single isomer, unassigned) [Example 17A]: the IC50 was in the range of 100 to 1000 nM.
As to `C=CCn1c(=O)c2cnc(Nc3ccc(N4CCN(C)[C@@H](C)C4)cc3)nc2n1-c1ccc2c(n1)[C@](C)(O)CC2` (single isomer, unassigned) [Example 17B], the IC50 is 100 to 1000 nM.
In the case of `C=CCn1c(=O)c2cnc(Nc3ccc(N4CCN(C)[C@H](C)C4)cc3)nc2n1-c1ccc2c(n1)[C@@](C)(O)CC2` (single isomer, unassigned) [Example 18A], the IC50 fell in the range of 100 to 1000 nM.
As for `C=CCn1c(=O)c2cnc(Nc3ccc(N4CCN(C)[C@H](C)C4)cc3)nc2n1-c1ccc2c(n1)[C@](C)(O)CC2` (single isomer, unassigned) [Example 18B], the IC50 is 100 to 1000 nM.
For `C=CCn1c(=O)c2cnc(Nc3ccc(N4CCN(C)C[C@@H]4C)cc3)nc2n1-c1ccc2c(n1)[C@@](C)(O)CC2` (single isomer, unassigned) [Example 19A], the IC50 was above 1000 nM.
For `C=CCn1c(=O)c2cnc(Nc3ccc(N4CCN(C)C[C@@H]4C)cc3)nc2n1-c1ccc2c(n1)[C@](C)(O)CC2` (single isomer, unassigned) [Example 19B] the value was 100 to 1000 nM; for `C=CCn1c(=O)c2cnc(Nc3ccc(N4CCN(C)C[C@H]4C)cc3)nc2n1-c1ccc2c(n1)[C@@](C)(O)CC2` (single isomer, unassigned) [Example 20A], above 1000 nM; for `C=CCn1c(=O)c2cnc(Nc3ccc(N4CCN(C)C[C@H]4C)cc3)nc2n1-c1ccc2c(n1)[C@](C)(O)CC2` (single isomer, unassigned) [Example 20B], 100 to 1000 nM.
For `C=CCn1c(=O)c2cnc(Nc3ccc(N4CCN(C)CC4)c(C)c3)nc2n1-c1ccc2c(c1)[C@@](C)(O)CC2` (single isomer, unassigned) [Example 23A], the IC50 lay within 100 to 1000 nM.
As to `C=CCn1c(=O)c2cnc(Nc3ccc(N4CCN(C)CC4)c(C)c3)nc2n1-c1ccc2c(c1)[C@](C)(O)CC2` (single isomer, unassigned) [Example 23B], the half-maximal inhibitory concentration (IC50) is below 100 nM.
For `C=CCn1c(=O)c2cnc(Nc3ccc(N4CCN(C)CC4)cc3)nc2n1-c1cc(F)c2c(c1)[C@@](C)(O)CC2` (single isomer, unassigned) [Example 24A] the value was 100 to 1000 nM.
For `C=CCn1c(=O)c2cnc(Nc3ccc(N4CCN(C)CC4)cc3)nc2n1-c1cc(F)c2c(c1)[C@](C)(O)CC2` (single isomer, unassigned) [Example 24B] the value was 100 to 1000 nM; for `C=CCn1c(=O)c2cnc(Nc3ccc(N4CCNCC4)cc3)nc2n1-c1ccc2c(n1)[C@@](C)(O)CCC2` (single isomer, unassigned) [Example 28A], 100 to 1000 nM.
As to `C=CCn1c(=O)c2cnc(Nc3ccc(N4CCNCC4)cc3)nc2n1-c1ccc2c(n1)[C@](C)(O)CCC2` (single isomer, unassigned) [Example 28B], the IC50 is 100 to 1000 nM.
For the compound `C=CCn1c(=O)c2cnc(Nc3ccc4c(c3)CNCC43CC3)nc2n1-c1ccc2c(n1)[C@@](C)(O)CCC2` (single isomer, unassigned) [Example 31A], the IC50 is below 100 nM.
The figure for `C=CCn1c(=O)c2cnc(Nc3ccc4c(c3)CNCC43CC3)nc2n1-c1ccc2c(n1)[C@](C)(O)CCC2` (single isomer, unassigned) [Example 31B] is below 100 nM; for `C=CCn1c(=O)c2cnc(Nc3ccc(N4CCN(C)CC4)cc3)nc2n1-c1cc2c(cn1)CC[C@]2(C)O` (single isomer, unassigned) [Example 37A] it is above 1000 nM.
The figure for `C=CCn1c(=O)c2cnc(Nc3ccc(N4CCN(C)CC4)cc3)nc2n1-c1cc2c(cn1)CC[C@@]2(C)O` (single isomer, unassigned) [Example 37B] is above 1000 nM; for `C=CCn1c(=O)c2cnc(Nc3ccc(N4CCN(C)CC4)cc3)nc2n1-c1ccc2c(n1)[C@](O)(C(C)(F)F)CC2` (single isomer, unassigned) [Example 38A] it is above 1000 nM.
As for `C=CCn1c(=O)c2cnc(Nc3ccc(N4CCN(C)CC4)cc3)nc2n1-c1ccc2c(n1)[C@@](O)(C(C)(F)F)CC2` (single isomer, unassigned) [Example 38B], the IC50 was in the range of 100 to 1000 nM.
For the compound `C=CCn1c(=O)c2cnc(Nc3ccc4c(ccn4C4CCN(C)CC4)c3)nc2n1-c1ccc2c(n1)[C@](O)(CC)CC2` (single isomer, unassigned) [Example 39A], the IC50 lay in the range of 100 to 1000 nM.
As to `C=CCn1c(=O)c2cnc(Nc3ccc4c(ccn4C4CCN(C)CC4)c3)nc2n1-c1ccc2c(n1)[C@@](O)(CC)CC2` (single isomer, unassigned) [Example 39B], the IC50 was in the range of 100 to 1000 nM.
The figure for `C=CCn1c(=O)c2cnc(Nc3ccc(C4=CCN(C)CC4)c(C)c3)nc2n1-c1ccc2c(n1)[C@](O)(CC)CC2` (single isomer, unassigned) [Example 40A] is 100 to 1000 nM.
With `C=CCn1c(=O)c2cnc(Nc3ccc(C4=CCN(C)CC4)c(C)c3)nc2n1-c1ccc2c(n1)[C@@](O)(CC)CC2` (single isomer, unassigned) [Example 40B], the IC50 is below 100 nM.
For the compound `C=CCn1c(=O)c2cnc(Nc3ccc(N4CCN(C)CC4)cc3)nc2n1-c1ccc2c(n1)[C@@](C)(NC(C)=O)CCC2` (single isomer, unassigned) [Example 41A], the half-maximal inhibitory concentration (IC50) was above 1000 nM.
Regarding `C=CCn1c(=O)c2cnc(Nc3ccc(N4CCN(C)CC4)cc3)nc2n1-c1ccc2c(n1)[C@](C)(NC(C)=O)CCC2` (single isomer, unassigned) [Example 41B], the IC50 was above 1000 nM.
Regarding `C=CCn1c(=O)c2cnc(Nc3ccc(N4CCN(C)CC4)cc3)nc2n1-c1cccc(C(C)(C)O)n1` [AZD1775, 2-allyl-1-(6-(2-hydroxypropan-2-yl)pyridin-2-yl)-6-(4-(4-methylpiperazin-1-yl)phenylamino)-1,2-dihydropyrazolo[3,4-d]pyrimidin-3-one, reference compound], the IC50 lay within 100 to 1000 nM.

The values above are taken from patent US11261192B2, “Substituted 1,2-dihydro-3H-pyrazolo[3,4-D]pyrimidin-3-ones” (Recurium IP Holdings, LLC, priority 2018, dated 2022).
